Experimental data from the NIST ThermoML archive (doi:10.1016/j.jct.2008.10.002).

Legend:
[1] = xn = mol fraction of the nth substance listed; conditions: 101.3 kPa, Liquid, Vibrating tube method
[2] = molar heat capacity at constant pressure; xn = mol fraction of the nth substance listed; conditions: 101.3 kPa, Liquid, Small sample (50 mg) DSC
[3] = excess molar enthalpy (molar enthalpy of mixing); xn = mol fraction of the nth substance listed; conditions: 303.15 K, 101.3 kPa, Liquid

CCOS(=O)(=O)[O-].CCn1cc[n+](C)c1 [1-ethyl-3-methylimidazolium ethyl sulfate] + O
Conditions	mass density, [1] [kg/m3]	molar heat capacity at constant pressure, [2] [J/K/mol]
293.15 K, x1 = 0.0477	1084.8	92.6
293.15 K, x1 = 0.1033	1138.7	109.8
293.15 K, x1 = 0.2048	1184.3	140.4
293.15 K, x1 = 0.2943	1203.3	167.1
293.15 K, x1 = 0.3847	1214.7	194.3
293.15 K, x1 = 0.4774	1222.5	222.7
293.15 K, x1 = 0.5797	1228.5	254.6
293.15 K, x1 = 0.6632	1232	281.3
293.15 K, x1 = 0.8092	1236.6	328.9
293.15 K, x1 = 0.907	1238.9	360.9
298.15 K, x1 = 0.0477	1082.3	92.9
298.15 K, x1 = 0.1033	1135.4	110.5
298.15 K, x1 = 0.2048	1180.8	141.4
298.15 K, x1 = 0.2943	1199.8	168.3
298.15 K, x1 = 0.3847	1211.3	195.7
298.15 K, x1 = 0.4774	1219.1	224.2
298.15 K, x1 = 0.5797	1225	256.2
298.15 K, x1 = 0.6632	1228.6	283.1
298.15 K, x1 = 0.8092	1233.2	330.9
298.15 K, x1 = 0.907	1235.5	363.1
303.15 K, x1 = 0.0477	1079.6	93.3
303.15 K, x1 = 0.1033	1132.1	111.2
303.15 K, x1 = 0.2048	1177.2	142.6
303.15 K, x1 = 0.2943	1196.3	169.7
303.15 K, x1 = 0.3847	1207.8	197.1
303.15 K, x1 = 0.4774	1215.6	225.8
303.15 K, x1 = 0.5797	1221.6	258
303.15 K, x1 = 0.6632	1225.2	285
303.15 K, x1 = 0.8092	1229.8	333
303.15 K, x1 = 0.907	1232.1	365.3
308.15 K, x1 = 0.0477	1076.9	93.6
308.15 K, x1 = 0.1033	1128.7	111.9
308.15 K, x1 = 0.2048	1173.6	143.7
308.15 K, x1 = 0.2943	1192.7	171
308.15 K, x1 = 0.3847	1204.3	198.6
308.15 K, x1 = 0.4774	1212.2	227.5
308.15 K, x1 = 0.5797	1218.2	259.9
308.15 K, x1 = 0.6632	1221.8	287.1
308.15 K, x1 = 0.8092	1226.4	335.3
308.15 K, x1 = 0.907	1228.7	367.7
313.15 K, x1 = 0.0477	1073.9	93.9
313.15 K, x1 = 0.1033	1125.3	112.7
313.15 K, x1 = 0.2048	1170	144.9
313.15 K, x1 = 0.2943	1189.2	172.4
313.15 K, x1 = 0.3847	1200.8	200.3
313.15 K, x1 = 0.4774	1208.7	229.3
313.15 K, x1 = 0.5797	1214.8	261.8
313.15 K, x1 = 0.6632	1218.4	289.2
313.15 K, x1 = 0.8092	1223	337.7
313.15 K, x1 = 0.907	1225.3	370.3
318.15 K, x1 = 0.0477	1071	94.4
318.15 K, x1 = 0.1033	1121.8	113.6
318.15 K, x1 = 0.2048	1166.4	146.2
318.15 K, x1 = 0.2943	1185.6	173.9
318.15 K, x1 = 0.3847	1197.3	202
318.15 K, x1 = 0.4774	1205.3	231.2
318.15 K, x1 = 0.5797	1211.3	263.9
318.15 K, x1 = 0.6632	1215	291.6
318.15 K, x1 = 0.8092	1219.6	340.3
318.15 K, x1 = 0.907	1221.9	373

[3]
Conditions	excess molar enthalpy [kcal/mol]
x1 = 0.0504	-0.115
x1 = 0.0997	-0.183
x1 = 0.1468	-0.219
x1 = 0.2004	-0.236
x1 = 0.2921	-0.231
x1 = 0.3935	-0.204
x1 = 0.4806	-0.19
x1 = 0.5727	-0.157
x1 = 0.6687	-0.124
x1 = 0.8212	-0.0681

CCn1cc[n+](C)c1.O=S(=O)([O-])C(F)(F)F [1-ethyl-3-methylimidazolium trifluoromethanesulfonate] + O
Conditions	mass density, [1] [kg/m3]	molar heat capacity at constant pressure, [2] [J/K/mol]
293.15 K, x1 = 0.0186	1063.6	83.2
293.15 K, x1 = 0.0522	1142.6	94.2
293.15 K, x1 = 0.0995	1208.9	108.1
293.15 K, x1 = 0.2037	1282.4	138
293.15 K, x1 = 0.2952	1315.7	163.5
293.15 K, x1 = 0.3868	1336.6	188.5
293.15 K, x1 = 0.4761	1350.7	213.2
293.15 K, x1 = 0.5771	1362.4	240.9
293.15 K, x1 = 0.6617	1370	264
293.15 K, x1 = 0.8398	1381.8	314.4
293.15 K, x1 = 0.8646	1383.1	321.6
298.15 K, x1 = 0.0186	1061.7	83.1
298.15 K, x1 = 0.0522	1139.6	94.3
298.15 K, x1 = 0.0995	1205.3	108.6
298.15 K, x1 = 0.2037	1278.3	138.9
298.15 K, x1 = 0.2952	1311.5	164.5
298.15 K, x1 = 0.3868	1332.4	189.7
298.15 K, x1 = 0.4761	1346.4	214.5
298.15 K, x1 = 0.5771	1358.1	242.3
298.15 K, x1 = 0.6617	1365.7	265.6
298.15 K, x1 = 0.8398	1377.5	316.3
298.15 K, x1 = 0.8646	1378.8	323.5
303.15 K, x1 = 0.0186	1059.5	83.2
303.15 K, x1 = 0.0522	1136.5	94.6
303.15 K, x1 = 0.0995	1201.6	109.2
303.15 K, x1 = 0.2037	1274.2	139.9
303.15 K, x1 = 0.2952	1307.2	165.6
303.15 K, x1 = 0.3868	1328.1	190.9
303.15 K, x1 = 0.4761	1342.2	215.8
303.15 K, x1 = 0.5771	1353.9	243.8
303.15 K, x1 = 0.6617	1361.5	267.3
303.15 K, x1 = 0.8398	1373.3	318.2
303.15 K, x1 = 0.8646	1374.6	325.5
308.15 K, x1 = 0.0186	1057.2	83.1
308.15 K, x1 = 0.0522	1133.3	94.7
308.15 K, x1 = 0.0995	1197.8	109.6
308.15 K, x1 = 0.2037	1270	140.7
308.15 K, x1 = 0.2952	1303	166.6
308.15 K, x1 = 0.3868	1323.9	192.1
308.15 K, x1 = 0.4761	1337.9	217.1
308.15 K, x1 = 0.5771	1349.7	245.3
308.15 K, x1 = 0.6617	1357.3	269
308.15 K, x1 = 0.8398	1369.1	320.2
308.15 K, x1 = 0.8646	1370.4	327.5
313.15 K, x1 = 0.0186	1054.7	83.2
313.15 K, x1 = 0.0522	1130	95
313.15 K, x1 = 0.0995	1193.9	110.1
313.15 K, x1 = 0.2037	1265.8	141.5
313.15 K, x1 = 0.2952	1298.7	167.7
313.15 K, x1 = 0.3868	1319.6	193.3
313.15 K, x1 = 0.4761	1333.7	218.5
313.15 K, x1 = 0.5771	1345.4	246.9
313.15 K, x1 = 0.6617	1353.1	270.8
313.15 K, x1 = 0.8398	1364.9	322.1
313.15 K, x1 = 0.8646	1366.3	329.6
318.15 K, x1 = 0.0186	1052.1	83.4
318.15 K, x1 = 0.0522	1126.7	95.4
318.15 K, x1 = 0.0995	1190.1	110.6
318.15 K, x1 = 0.2037	1261.6	142.4
318.15 K, x1 = 0.2952	1294.4	168.8
318.15 K, x1 = 0.3868	1315.3	194.6
318.15 K, x1 = 0.4761	1329.4	220
318.15 K, x1 = 0.5771	1341.2	248.5
318.15 K, x1 = 0.6617	1348.9	272.6
318.15 K, x1 = 0.8398	1360.8	324.2
318.15 K, x1 = 0.8646	1362.1	331.7

[3]
Conditions	excess molar enthalpy [kcal/mol]
x1 = 0.1012	0.116
x1 = 0.1943	0.19
x1 = 0.2959	0.237
x1 = 0.4031	0.256
x1 = 0.4921	0.253
x1 = 0.5929	0.23
x1 = 0.6997	0.182
x1 = 0.7805	0.144
x1 = 0.844	0.107
